The record followed here is patent publication US20260216157A1, “TETRAHYDROTHIOPHENE DERIVATIVE AND USE THEREOF IN MEDICINE” (Haisco Pharmaceutical Group Co., Ltd., priority 2023, published 2026).

One may read the IC50 as the point on the concentration scale where inhibition reaches its midpoint.

In this assay the target is T1, hNav1.8 (Homo sapiens, UniProt Q9Y5Y9).
T1 construct: expressed in transfected cells; host or cells: CHO
T1 sequence (Q9Y5Y9 whole entry): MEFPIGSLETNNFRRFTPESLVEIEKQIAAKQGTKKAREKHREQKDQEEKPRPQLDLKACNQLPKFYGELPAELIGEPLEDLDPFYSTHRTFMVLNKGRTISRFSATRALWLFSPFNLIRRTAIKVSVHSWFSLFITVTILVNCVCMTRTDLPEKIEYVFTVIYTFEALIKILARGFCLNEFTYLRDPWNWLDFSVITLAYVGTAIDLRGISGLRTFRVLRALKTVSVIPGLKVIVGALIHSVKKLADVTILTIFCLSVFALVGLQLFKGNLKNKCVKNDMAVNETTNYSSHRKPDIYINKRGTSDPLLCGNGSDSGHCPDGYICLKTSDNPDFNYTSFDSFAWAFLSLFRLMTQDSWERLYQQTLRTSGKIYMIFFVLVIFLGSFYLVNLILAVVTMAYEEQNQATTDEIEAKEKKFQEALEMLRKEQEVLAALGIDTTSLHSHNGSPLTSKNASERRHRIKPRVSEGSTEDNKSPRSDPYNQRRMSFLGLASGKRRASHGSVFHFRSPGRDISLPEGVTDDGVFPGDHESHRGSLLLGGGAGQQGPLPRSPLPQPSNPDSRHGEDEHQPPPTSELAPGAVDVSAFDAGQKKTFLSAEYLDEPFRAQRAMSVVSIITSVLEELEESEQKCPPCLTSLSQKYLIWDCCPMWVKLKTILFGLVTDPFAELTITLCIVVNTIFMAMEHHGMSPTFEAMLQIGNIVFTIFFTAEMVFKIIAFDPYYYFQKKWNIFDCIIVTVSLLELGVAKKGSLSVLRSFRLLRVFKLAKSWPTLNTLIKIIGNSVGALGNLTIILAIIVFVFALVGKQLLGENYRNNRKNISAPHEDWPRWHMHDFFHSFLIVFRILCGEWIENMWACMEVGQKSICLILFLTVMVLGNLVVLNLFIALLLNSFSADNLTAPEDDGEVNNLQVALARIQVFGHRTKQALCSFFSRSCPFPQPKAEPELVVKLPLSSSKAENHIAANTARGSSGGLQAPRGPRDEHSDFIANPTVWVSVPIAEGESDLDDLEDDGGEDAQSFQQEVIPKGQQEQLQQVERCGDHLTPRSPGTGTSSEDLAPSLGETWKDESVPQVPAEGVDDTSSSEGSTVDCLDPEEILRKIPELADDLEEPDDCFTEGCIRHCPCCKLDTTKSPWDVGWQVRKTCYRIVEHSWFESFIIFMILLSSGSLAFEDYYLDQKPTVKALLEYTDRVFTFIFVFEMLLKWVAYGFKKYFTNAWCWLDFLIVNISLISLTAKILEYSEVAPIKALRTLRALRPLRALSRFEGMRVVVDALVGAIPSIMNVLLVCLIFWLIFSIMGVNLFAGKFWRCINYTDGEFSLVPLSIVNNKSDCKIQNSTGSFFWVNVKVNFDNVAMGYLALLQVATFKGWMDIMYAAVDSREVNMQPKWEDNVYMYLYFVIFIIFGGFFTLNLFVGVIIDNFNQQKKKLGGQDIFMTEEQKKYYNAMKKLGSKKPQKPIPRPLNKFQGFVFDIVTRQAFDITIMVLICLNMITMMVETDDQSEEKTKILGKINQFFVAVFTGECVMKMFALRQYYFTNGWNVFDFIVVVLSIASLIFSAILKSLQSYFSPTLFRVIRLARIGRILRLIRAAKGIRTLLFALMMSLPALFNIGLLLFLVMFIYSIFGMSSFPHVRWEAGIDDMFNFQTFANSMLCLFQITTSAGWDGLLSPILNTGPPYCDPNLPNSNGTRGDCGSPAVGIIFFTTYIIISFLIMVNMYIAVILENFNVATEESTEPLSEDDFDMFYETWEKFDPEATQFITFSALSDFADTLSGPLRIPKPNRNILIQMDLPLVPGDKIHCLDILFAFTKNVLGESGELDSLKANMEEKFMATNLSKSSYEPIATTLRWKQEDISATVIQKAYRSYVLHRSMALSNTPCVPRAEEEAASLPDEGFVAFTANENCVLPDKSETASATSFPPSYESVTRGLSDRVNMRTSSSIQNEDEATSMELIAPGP
In words: Nav1.8 manual patch clamp test. It is filed as cell-based. Particulars: CHO cells stably expressing human Nav1.8; whole-cell patch clamp, half-inactivated state; read-out: Inhibitory activity (IC50) against hNav1.8. On the procedure:
Nav1.8 Manual Patch Clamp Test
CHO cell lines stably expressing human Nav1.8 were cultured in a Ham's F-12 medium containing 10% fetal bovine serum, 10 μg/mL Blasticidin, 200 μg/mL Hygromycin B and 100 μg/mL Zeocin. The cells were cultured at 37° C. with a carbon dioxide concentration of 5%. The old medium was removed, and the cells were rinsed once with PBS. Then, 1 mL of 0.25%-Trypsin-EDTA solution was added, and the cells were incubated at 37° C. for approximately 1.5 min. Once the cells detached from the bottom of the dish, complete medium pre-warmed to 37° C. was added. The cell suspension was gently triturated with a pipette to dissociate the clumped cells. The cell suspension was transferred to a sterile centrifuge tube and centrifuged at 1000 rpm for 5 min to collect the cells. The cells were seeded into 6 cm cell culture dishes at a density of 2.5×10^5 cells per cell culture dish (final volume: 5 mL) for expansion or maintenance culture. To maintain the electrophysiological activity of the cells, the cell density should not exceed 80%. Before patch clamp testing, the cells were dissociated with 0.25%-Trypsin-EDTA. 6.5×10^3 cells were plated onto coverslips and cultured in 24-well plates (final volume: […]) for 18 hours before detection.
The compound was dissolved in dimethyl sulfoxide (DMSO) and prepared into a 30 mM DMSO stock solution. The stock solution was diluted with the extracellular fluid (140 mM NaCl, 3.5 mM KCl, 1 mM MgCl2·6H2O, 2 mM CaCl2·2H2O, 10 mM D-Glucose, 10 mM HEPES and 1.25 mM NaH2PO4·2H2O; adjusted to pH 7.4 with NaOH) to the test concentration, and the final DMSO concentration of all test samples was 0.1%.
(3) Electrophysiological Test
First, the recording electrodes were pulled from capillary glass tubes by using a microelectrode puller. Then, the electrodes were filled with the intracellular fluid (50 mM CsCl, 10 mM NaCl, 10 mM HEPES, 60 mM CsF and 20 mM EGTA; adjusted to pH 7.2 with CsOH) and mounted onto the microelectrode holder. Under an inverted microscope, the microelectrode manipulator was used to immerse the electrodes into the extracellular fluid, and the pipette resistance (Rpip) was recorded. The electrodes were slowly brought into contact with the cell surface, and negative pressure suction was applied to form a […]. At this point, fast capacitance compensation was performed, and negative pressure was continuously applied to break the cell membrane, forming a whole-cell recording mode. Finally, slow capacitance compensation was performed, and experimental parameters such as series resistance (Rs) were recorded. No electric leakage compensation was applied. When the Nav1.8 current in whole-cell recording was stable, drug administration was initiated, with each drug concentration for approximately 5 min (or until the current was stable). The coverslips spread with the cells were placed in a recording chamber under the inverted microscope. The blank control extracellular fluid and the test compound working solution were perfused through the recording chamber via the gravity-driven perfusion method, thereby acting on the cells, and a peristaltic pump was used to facilitate liquid exchange. The current recorded from cells in compound-free extracellular fluid was used as the control group. All electrophysiological experiments were conducted at room temperature. The inhibition rate of compounds on Nav1.8 was determined by calculating the relative percentage of peak currents generated before and after the cells were treated with the compounds.
The voltage stimulation protocol for whole-cell patch clamp recording of Nav1.8 sodium currents was described as follows. When the whole-cell sealing was formed, the cells were clamped at a voltage of −120 mV. First, the voltage was stepped from −110 mV to −30 mV in 10 mV increments and maintained for 5 s, followed by a depolarizing pulse to 0 mV to obtain a half-inactivation voltage (Vhalf). […]
As for `COc1c(C2C(C(=O)Nc3ccnc(C(N)=O)c3)SC(C)(C(F)(F)F)C2C)ccc(F)c1F` (centres unmarked), the IC50 is below 0.1 nM. The same measure for `COc1c([C@H]2[C@H](C(=O)Nc3ccc(F)c(S(C)(=N)=O)c3)S[C@@](C)(C(F)(F)F)[C@H]2C)ccc(F)c1F` (some centres unmarked): below 0.1 nM; for `COc1c(C2C(C(=O)Nc3ccnc(OCC(O)CO)c3)SC(C)(C(F)(F)F)C2C)ccc(F)c1F` (mixture of isomers) [Mixture of compounds 33-1a and 33-1b]: below 1 nM. For `COc1c([C@H]2[C@H](C(=O)Nc3ccc[n+]([O-])c3)S[C@@](C)(C(F)(F)F)[C@H]2C)ccc(F)c1F` (racemic) [Mixture of compounds 20-1a and 20-1b], the IC50 is below 0.1 nM. To `COc1c(C2C(C(=O)Nc3ccnc(C(N)=O)c3)SC(C)(C(F)(F)F)C2C)ccc(F)c1F` (single isomer, unassigned) [Compound 1-2P1] belongs below 0.1 nM; to `COc1c(C2C(C(=O)Nc3ccnc(C(N)=O)c3)SC(C)(C(F)(F)F)C2C)ccc(F)c1F` (single isomer, unassigned) [Compound 1-2P2], below 10 nM; to `COc1c(C2CC(C)(C(F)(F)F)SC2C(=O)Nc2cccc(C(N)=O)c2)ccc(F)c1F` (single isomer, unassigned) [Compound 32-1P1], below 1 nM.

In the case of `COc1c(C2CC(C)(C(F)(F)F)SC2C(=O)Nc2cccc(C(N)=O)c2)ccc(F)c1F` (single isomer, unassigned) [Compound 32-1P2], the half-inhibitory concentration (IC50) was below 1 nM. The same measure for `COc1c([C@@H]2C[C@](C)(C(F)(F)F)S[C@H]2C(=O)Nc2ccc(F)c(C(N)=O)c2)ccc(F)c1F` (single isomer, unassigned) [Compound 70-a]: below 0.1 nM; for `COc1c([C@H]2[C@H](C(=O)Nc3ccnc(C(N)=O)c3)S[C@@](C)(C(F)(F)F)[C@H]2C)ccc(F)c1F` [Compound 1-2a]: below 0.1 nM.

For the compound `COc1c([C@H]2[C@H](C(=O)Nc3ccnc(S(N)(=O)=O)c3)S[C@@](C)(C(F)(F)F)[C@H]2C)ccc(F)c1F` [Compound 5-3a], the IC50 is below 0.1 nM.

Turning to `COc1c([C@H]2[C@H](C(=O)Nc3cccc(S(N)(=O)=O)c3)S[C@@](C)(C(F)(F)F)[C@H]2C)ccc(F)c1F` [Compound 7-1a], the IC50 is below 0.1 nM. To `COc1c([C@H]2[C@H](C(=O)Nc3ccc(F)c(S(N)(=O)=O)c3)S[C@@](C)(C(F)(F)F)[C@H]2C)ccc(F)c1F` [Compound 8-1a] belongs below 0.1 nM; to `COc1c([C@H]2[C@H](C(=O)Nc3ccc(CO)nc3)S[C@@](C)(C(F)(F)F)[C@H]2C)ccc(F)c1F` [Compound 18-2a], below 1 nM.

For the compound `COc1c([C@H]2[C@H](C(=O)Nc3cnc(CO)nc3)S[C@@](C)(C(F)(F)F)[C@H]2C)ccc(F)c1F` [Compound 19-2a], the concentration for half-maximal inhibition (IC50) was below 1 nM.

In the case of `COc1c([C@H]2[C@H](C(=O)Nc3ccc[n+]([O-])c3)S[C@@](C)(C(F)(F)F)[C@H]2C)ccc(F)c1F` [Compound 20-1a], the half-inhibitory concentration (IC50) is below 1 nM. To `COc1c([C@H]2[C@H](C(=O)Nc3cccc(S(C)(=O)=O)c3)S[C@@](C)(C(F)(F)F)[C@H]2C)ccc(F)c1F` [Compound 22-1a] belongs below 0.1 nM. The same measure for `COc1c([C@H]2[C@H](C(=O)Nc3ccnc(S(C)(=O)=O)c3)S[C@@](C)(C(F)(F)F)[C@H]2C)ccc(F)c1F` [Compound 25-1a]: below 0.1 nM; for `COc1c([C@H]2[C@H](C(=O)Nc3ccc(F)c(S(C)(=O)=O)c3)S[C@@](C)(C(F)(F)F)[C@H]2C)ccc(F)c1F` [Compound 26-1a]: below 0.1 nM. The same measure for `COc1c([C@H]2[C@H](C(=O)Nc3cc[nH]c(=O)c3)S[C@@](C)(C(F)(F)F)[C@H]2C)ccc(F)c1F` [Compound 36-2a]: below 0.1 nM; for `COc1c([C@H]2[C@H](C(=O)Nc3ccc(F)c(CO)c3)S[C@@](C)(C(F)(F)F)[C@H]2C)ccc(F)c1F` [Compound 48-1a]: below 1 nM. On to `COc1c([C@H]2[C@H](C(=O)Nc3ccnc(CO)c3)S[C@@](C)(C(F)(F)F)[C@H]2C)ccc(F)c1F` [Compound 50], for which the half-maximal inhibitory concentration (IC50) is below 1 nM. To `COc1c([C@H]2[C@H](C(=O)Nc3ccc(F)c(C(=O)O)c3)S[C@@](C)(C(F)(F)F)[C@H]2C)ccc(F)c1F` [Compound 55] belongs below 1 nM. On to `COc1c([C@H]2[C@H](C(=O)Nc3cccc(P(C)(C)=O)c3)S[C@@](C)(C(F)(F)F)[C@H]2C)ccc(F)c1F` [Compound 57], for which the IC50 is below 1 nM. The same measure for `C[C@H]1[C@@H](c2ccc(F)c3c2CCC3)[C@H](C(=O)Nc2ccc(F)c(S(N)(=O)=O)c2)S[C@@]1(C)C(F)(F)F` [Compound 59-b]: below 0.1 nM.

Consider `C[C@H]1[C@@H](c2ccc(F)c3c2CCC3)[C@H](C(=O)Nc2ccc(F)c(C(N)=O)c2)S[C@@]1(C)C(F)(F)F` [Compound 61-b], for which the IC50 is below 0.1 nM. To `C[C@H]1[C@@H](c2ccc(F)c3c2CCC3)[C@H](C(=O)Nc2ccc(F)c(S(C)(=N)=O)c2)S[C@@]1(C)C(F)(F)F` (some centres unmarked) [Compound 63-b] belongs below 0.1 nM. Regarding `C[C@H]1[C@@H](c2ccc(F)c3c2CCC3)[C@H](C(=O)Nc2ccc(F)c(S(C)(=O)=O)c2)S[C@@]1(C)C(F)(F)F` [Compound 65-b], the IC50 is below 0.1 nM.

`C[C@H]1[C@@H](c2ccc(F)c3c2CCC3)[C@H](C(=O)Nc2ccnc(P(C)(C)=O)c2)S[C@@]1(C)C(F)(F)F` [Compound 68-b]: the IC50 was below 1 nM. The same measure for `COc1c([C@@H]2C[C@](C)(C(F)(F)F)S[C@H]2C(=O)Nc2ccc(F)c(S(N)(=O)=O)c2)ccc(F)c1F` [Compound 72-a]: below 0.1 nM; for `COc1c([C@@H]2C[C@](C)(C(F)(F)F)S[C@H]2C(=O)Nc2ccnc(P(C)(C)=O)c2)ccc(F)c1F` [Compound 74-a]: below 1 nM; for `COc1c(C2C(C(=O)Nc3ccnc(S(N)(=O)=O)c3)SC(C)(C(F)(F)F)C2C)ccc(F)c1F` (centres unmarked) [Mixture of compounds 5-3a and 5-3b]: below 1 nM. To `COc1c(C2C(C(=O)Nc3ccc(CO)nc3)SC(C)(C(F)(F)F)C2C)ccc(F)c1F` (centres unmarked) [Mixture of compounds 18-2a and 18-2b] belongs below 1 nM; to `COc1c(C2C(C(=O)Nc3cnc(CO)nc3)SC(C)(C(F)(F)F)C2C)ccc(F)c1F` (centres unmarked) [Mixture of compounds 19-2a and 19-2b], below 1 nM. As to `COc1c(C2C(C(=O)Nc3ccnc(S(C)(=O)=O)c3)SC(C)(C(F)(F)F)C2C)ccc(F)c1F` (centres unmarked) [Mixture of compounds 25-1a and 25-1b], the IC50 was below 0.1 nM.

Regarding `COc1c(C2C(C(=O)Nc3ccc(F)c(S(C)(=O)=O)c3)SC(C)(C(F)(F)F)C2C)ccc(F)c1F` (centres unmarked) [Mixture of compounds 26-1a and 26-1b], the IC50 was below 1 nM. To `COc1c([C@H]2[C@H](C(=O)Nc3cccc(C(N)=O)c3)S[C@@](C)(C(F)(F)F)[C@H]2C)ccc(F)c1F` [Mixture of compounds 28-2a and 28-2b] belongs below 0.1 nM; to `COc1cc(F)ccc1C1C(C(=O)Nc2ccnc(C(N)=O)c2)SC(C)(C(F)(F)F)C1C` (centres unmarked) [Mixture of compounds 34-1a and 34-1b], below 1 nM; to `[2H]C([2H])([2H])Oc1c([C@H]2[C@H](C(=O)Nc3ccnc(C(N)=O)c3)S[C@@](C)(C(F)(F)F)[C@H]2C)ccc(F)c1F` [Mixture of compounds 35-8a and 35-8b], below 0.1 nM. To `COc1c(C2C(C(=O)Nc3cc[nH]c(=O)c3)SC(C)(C(F)(F)F)C2C)ccc(F)c1F` (centres unmarked) [Mixture of compounds 36-2a and 36-2b] belongs below 0.1 nM; to `CC1C(c2ccc(F)c3c2CCC3)C(C(=O)Nc2cccc(C(N)=O)c2)SC1(C)C(F)(F)F` (centres unmarked) [Mixture of compounds 37-1a and 37-1b], below 1 nM.
